These results are taken from ChEMBL document CHEMBL4392858, “Synthesis and biological evaluation of novel imidazole nucleosides as potential anti-dengue virus agents” (Bioorg Med Chem, 2019).

The term CC50 denotes the concentration giving 50% cytotoxicity. What is called IC50 is the concentration that gives 50% inhibition.

The nature of data set [1]: Cytotoxicity in BHK cells assessed as reduction in cell viability incubated for 72 hrs by cell count reagent SF based microplate spectrophotometry. The conditions noted are these: cricetinae.
The nature of data set [2]: Selectivity index, ratio of CC50 for cytotoxicity in BHK cells to IC50 for antiviral activity against Dengue virus 1 DGL2 replicon infected in BHK cells. The data set is classed as toxicity, cell-based. The conditions noted are these: hamster, read-out: Ratio CC50/IC50.
In the next data set the test system is dengue virus type 1. Briefly: Antiviral activity against Dengue virus 1 DGL2 replicon infected in BHK cells assessed as inhibition of viral replicon RNA replication incubated for 72 hrs by Gaussia-luciferase reporter gene assay. The data set is classed as functional, organism-based.

Take `C#Cc1c(C(N)=O)ncn1[C@@H]1S[C@H](CO)[C@@H](O)[C@H]1O`: in data set [1], the half-maximal cytotoxic concentration (CC50) at 72 h is above 50 µM. Further, the selectivity ratio in data set [2] is above 3.42. Further, the IC50 in the data set with dengue virus type 1 was 14.6 µM.
The matching figures for `C#Cc1c(C#N)ncn1[C@@H]1O[C@H](CO)[C@@H](O)[C@H]1O`: 3.99 µM, 7.25 and 0.55 µM.
The matching figures for `C#Cc1c(C#N)ncn1[C@@H]1S[C@H](CO)[C@@H](O)[C@H]1O`: above 50 µM, above 7.61 and 6.57 µM.
For `C#Cc1c(C(N)=O)ncn1[C@@H]1[Se][C@H](CO)[C@@H](O)[C@H]1O`, in data set [1], the CC50 at 72 h is above 50 µM. Also, the half-inhibitory concentration (IC50) with dengue virus type 1 was above 20 µM.
As to `C#Cc1c(C#N)ncn1[C@@H]1[Se][C@H](CO)[C@@H](O)[C@H]1O`, the CC50 at 72 h in data set [1] is above 50 µM. For the same compound, the selectivity ratio in data set [2] is above 2.24. Further, in the data set on dengue virus type 1, the IC50 was found to be 22.3 µM.
For `C#Cc1c(C(N)=O)ncn1[C@@H]1O[C@H](CO)[C@@H](O)[C@H]1O`, in that order: 1.24 µM, 4.59 and 0.27 µM.
`NC(=O)c1ncn([C@@H]2O[C@H](CO)[C@@H](O)[C@H]2O)n1` [RIBAVIRIN]: the cytotoxic concentration (CC50) at 72 h in data set [1] came to 49 µM. Moreover, in data set [2], the selectivity ratio is 7.35. For the same compound, in the data set with dengue virus type 1, the 50% inhibitory concentration (IC50) amounted to 6.66 µM.
